Patent US11851676B2, “Human neural precursor cells with inducible STIM1 knockdown” (NATIONAL CENTRE FOR BIOLOGICAL SCIENCES, priority 2018, dated 2023)

Experiments:
SVZ cells [1] = conditions: pharmacological blockade of SOC, in vitro; cited from earlier work
SOCE in human NPCs = assay: Thapsigargin-induced store release and SOCE Ca2+ imaging in human NPCs; format: cell-based; conditions: thapsigargin 10 μM store depletion, re-addition of 2 mM Ca2+; pharmacological inhibitors vs DMSO
Experimental: (A, B) Ca^2+-responses during ER-store release and SOCE induced by Thapsigargin (TG, 10 μM) measured using the ratiometric Ca^2+-indicator indo-1-AM in wild-type (WT) hNPCs (A) or hNPCs treated with pharmacological inhibitors of SOCE, BTP-2 and 2-APB at the indicated concentrations or DMSO as a solvent control (B). Each trace represents the mean+SEM for 25-100 cells. Ionomycin (Iono, 10 μM) was added at the end of each imaging to determine the peak F405/485 ratio obtained after saturation of the Ca′-indicator with Ca^2+ (C) Box plots quantifying the peak F405/485 values for store-release and SOCE in the indicated treatment conditions.
(Top) A representative Western blot showing levels of STIM1 protein in hNPCs transduced with an NTC (non-targeting control) or an sh-RNA targeting STIM1 (STIM1 KD). Actin serves as the loading control. […] (E) Ca^2+-responses during store-release and SOCE in hNPCs transduced with NTC and STIM1 KD. (F) Box plots quantifying the peak F405/485 values for store-release and SOCE in the indicated genotypes.

SOCE in NPCs = conditions: embryonic and adult mouse NSCs/NPCs; cited from earlier work
SVZ cells [2] = conditions: injection in brain lateral ventricle; cited from earlier work

| SMILES | effect on proliferation of SVZ cells (SVZ cells [1]) | effect on SOCE in human NPCs (SOCE in human NPCs) | effect on SOCE in mouse NPCs (SOCE in NPCs) | effect on SVZ cell proliferation in vivo (SVZ cells [2]) |
| --- | --- | --- | --- | --- |
| Cc1nnsc1C(=O)Nc1ccc(-n2nc(C(F)(F)F)cc2C(F)(F)F)cc1 [BTP-2] | decreases proliferation | significantly inhibited SOCE | blocked | – |
| [La+3] [La^3+] | – | – | blocked | – |
| COc1ccc(CCCOC(Cn2ccnc2)c2ccc(OC)cc2)cc1 (centres unmarked) [SKF-96365] | decreases proliferation | – | – | diminishes SVZ cell proliferation |
| NCCOB(c1ccccc1)c1ccccc1 [2-APB, 2-aminoethoxy-diphenyl borate] | – | significantly inhibited SOCE | blocked | – |
